Data taken from article PMC10498496, “Design and Synthesis of Poly(2,2′-Bipyridyl) Ligands for Induction of Cell Death in Cancer Cells: Control of Anticancer Activity by Complexation/Decomplexation with Biorelevant Metal Cations” (Inorganic Chemistry, 2023).
Where two headings read alike, the source gives them in different places.

Experiments:
[1] = system: Jurkat cells; assay: Annexin V-FITC/PI staining by flow cytometry; type: cell-based, human; conditions: 24 h
Description: The cell death in Jurkat cells induced by 1 and cisplatin (after the treatment for 24 h) was characterized by the flow cytometry of Jurkat cells after co-staining with Annexin V-FITC and PI to characterize the early and late apoptosis or necrosis. Each of the four areas in Figure 6 indicates Annexin V-FITC negative and PI signal positive (= necrotic cells) (top left square), Annexin V-FITC positive and PI positive (= late apoptosis) (top right square), Annexin V-FITC negative and PI negative (= alive cells) (bottom left square); and Annexin V-FITC positive and PI signal negative (= early apoptosis cells) (bottom right square), respectively. As summarized in Figure 7, the percentage of late apoptotic cells of the cells that had been treated with cisplatin increased from 15 to 75% at [cisplatin] = 12.5 to 50 μM and the percentage of late apoptotic cells of cells treated with 1 increased from 14 to 65% at = […] to 5 μM.
Figure 6 Jurkat cells were treated with no ligand (a) and with 1 (0.5–5 μM) (b,c) and cisplatin (12.5–50 μM) (d,e) and for 24 h, stained with Annexin V-FITC/PI, and observed by flow cytometry. The four areas in each graph show necrotic cells in the top left square (Annexin V-FITC^-/PI^+), late apoptotic cells in the top right square (Annexin V-FITC^+/PI^+), alive cells in the bottom left square (Annexin V-FITC^–/PI^–), and apoptotic cells in the bottom right square (Annexin V-FITC^+/PI^–). TEXT PRINTED IN THE PICTURE: (b) 1: 1.14 (0.5 μM); 14.7 (0.5 μM); 83.5 (0.5 μM); 0.7 (0.5 μM) | (c) 1: 0.82 (5 μM); 59 (5 μM); 38.5 (5 μM); 1.6 (5 μM) | (d) cisplatin: 4.19 (12.5 μM); 24.3 (12.5 μM); 71.3 (12.5 μM); 0.23 (12.5 μM) | (e) cisplatin: 0.94 (50 μM); 66.2 (50 μM); 32.6 (50 μM); 0.24 (50 μM) DOUBTS OF THE COPYIST ABOUT THIS PICTURE: The quadrant numbers are printed without a measure or unit. In each panel they are given in the order top left, top right, bottom left, bottom right. / Panel (a) Control (1.26, 3.82, 94.9, 0.072) is left out because it is not a substance.
Jurkat cells (1.0 × 10^5 cells/tube) were incubated in 10% FBS RPMI 1640 medium containing solution of 1 ([…]) and cisplatin (0–50 μM) for 24 h. The cells were then centrifuged at 3000 rpm for 5 min at 4 °C, then the supernatant was discarded, and the pellet was resuspended in 200 μL of PBS. The cells were then centrifuged at 3000 rpm for 5 min at 4 °C, then the supernatant was discarded, and the pellet was resuspended in 195 μL of 1 × binding buffer. A 195 μL aliquot of the sample solution was incubated with 5 μL of FITC-conjugated annexin V (Invitrogen) for 15 min at room temperature in the dark. […] 200 μL of the sample solution transferred to culture tube were analyzed by flow cytometry (Becton Dickinson) using Cell Quest Research Software (Becton Dickinson).

[2] = system: IMR-90 cells; assay: MTT assay, cytotoxicity against IMR-90 cells (model of normal cells); type: cell-based, human; conditions: MTT, 37 °C, treated for 24 h, read-out: EC50 against IMR-90
Description: Second, we conducted the quantitative evaluation of the cytotoxicity of 1, 2, and 3 against various cancer cell lines by an MTT (3-(4,5-dimethylthiazol-2-yl)-2,5-diphenyltetrazolium bromide) assay. Jurkat, MOLT-4 (these two cell lines are human T-lymphocyte leukemia cells), and U937 (human lymphoma) cells (1.5 × 10^4 cells/well) were incubated in RPMI 1640 medium containing 10% FBS (fetal bovine serum) containing 1, 2, and 3 (0–25 μM) at 37 °C for 24 h, and then treated with the MTT reagent. A549 (human alveolar adenocarcinoma) and IMR-90 (normal human fetal lung fibroblast as model of normal cells) cells (1.5 × 10^4 cells/well) were incubated in DMEM (low glucose) with 10% FBS containing 1, 2, and 3 (0–25 μM), HeLa S3 (human epithelial carcinoma cells) cells (1.5 × 10^4 cells/well) were incubated in MEM with 10% FBS containing these ligands (0–25 μM) for 24 h at 37 °C and then treated with the MTT reagent.
IMR-90 cells in DMEM medium with 10% FBS (1.5 × 10^5 cells/mL) were seeded in to 96 well plates and incubated for 24 h at 37 °C, MTT assays with poly(bpy) ligands and their metal complexes (0–100 μM), cisplatin (0–100 μM), and actinomycin D (0–10 μM) were performed following the same procedure described above. These experiments were carried out at least three times. • (b) MTT assay in the presence of a caspase inhibitor. Jurkat cells were pre-treated with Z-VAD-fmk (15 μM) for 3 h, a general caspases inhibitor, followed by the treatment with 1 (1 μM), BABTA-AM (12.5 μM) and cisplatin (50 μM), respectively, for 24 h, and then MTT assay was carried out as described above. • (c) For evaluation of the effect of metal ions on the cytotoxicity of 1, 2, BAPTA, and BAPTA-AM, these ligands were incubated with metal ions such as Cu(NO3)2, Zn(NO3)2, FeSO4, Co(NO3)2, and NiSO4 for 1 h, respectively, and added to Jurkat cells. The whole mixtures were incubated for 12, 24, and 48 h at [ligand] = 0.78–25 μM and at [M^2+] = 1.71–37.5 μM ([ligand]/[M^2+] = 1:1.5). The MTT assays were conducted as described above.

Row | SMILES | percentage of late apoptotic cells ([1]; 12.5 μM (Figure 7, n = 3)) | percentage of late apoptotic cells ([1]; 50 μM (Figure 7, n = 3)) | EC50 [2] | percentage of late apoptotic cells ([1]; 0.25 μM (Figure 7, n = 3)) | percentage of late apoptotic cells ([1]; 5 μM (Figure 7, n = 3)) | EC50 ([2]; Homo sapiens, IMR-90)
1 | N.N.[Cl][Pt][Cl] [cisplatin, reference compound] | 15% | 75% | > 100 µM | – | – | –
2 | c1ccc(-c2ccc(OCc3cc(COc4ccc(-c5ccccn5)nc4)cc(COc4ccc(-c5ccccn5)nc4)c3)cn2)nc1 [compound 1, 1,3,5-Tris(([2,2′-Bipyridin]-5-yloxy)methyl)benzene] | – | – | – | 14% | 65% | > 100 µM
